Our source for the IC50 values is US20260258032A1, “TYROSINE KINASE 2 INHIBITORS AND USES THEREOF” (BIOGEN MA INC., priority 2022, published 2026).

Structures can show the parent of a compound that is named as a salt.

T1 sequence (P29597 575-876): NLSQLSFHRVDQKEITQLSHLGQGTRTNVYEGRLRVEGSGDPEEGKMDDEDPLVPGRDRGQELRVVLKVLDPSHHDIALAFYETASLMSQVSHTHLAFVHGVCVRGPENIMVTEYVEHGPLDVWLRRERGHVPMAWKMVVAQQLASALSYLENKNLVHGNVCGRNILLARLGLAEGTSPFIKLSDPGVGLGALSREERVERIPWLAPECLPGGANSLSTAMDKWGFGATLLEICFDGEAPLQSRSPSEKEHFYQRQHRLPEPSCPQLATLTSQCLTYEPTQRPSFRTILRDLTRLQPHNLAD

The first test addresses T1, JH2 domain of human Tyk2 (Homo sapiens, UniProt P29597).
T1 construct: 10×His-tagged TYK2 JH2 domain (amino acid 575-876)
The experiment in a line: JH2 biochemical assay (TR-FRET probe displacement). The test is classed as binding. As to conditions: JH2 biochemical assay. The procedure: The inhibitory potency of compounds of the disclosure against the kinase activity of recombinantly generated JH2 domain of human Tyk2 was evaluated in a plate-based assay using a TR-FRET assay platform. Briefly, 2 nM of recombinant JH2 domain [10×His-tagged TYK2 JH2 domain (amino acid 575-876)] was combined with 2 nM probe ((S)-6-amino-9-(2-carboxy-4-((1-(3-(8-methyl-5-(methylamino)-8H-imidazo[4,5-d]thiazolo[5,4-b]pyridin-2-yl)phenyl)ethyl)carbamoyl)phenyl)-3-iminio-5-sulfo-3H-xanthene-4-sulfonate), 0.1 nM Tb-labeled anti-His antibody, and compounds of disclosure for 60 minutes. Compounds are tested at either […] top concentration, 10 points of 3-fold dilution. The TR-FRET signal […] by compounds and signal was calculated by taking the ratio of fluorescence at 520 nm and 495 nm. The data was normalized and the percent activity versus log concentration of compound was fitted with a 4-parameter logistic model to generate IC50 curves.
As a reminder, the IC50 is the midpoint of a concentration-inhibition curve. Turning to `CC(=O)Nc1cc2c(cn1)C1(CC1)CN2c1cc(C)cc(-c2cn(C)nc2C(F)(F)F)n1` [Example 261, N-(1′-(4-methyl-6-(1-methyl-3-(trifluoromethyl)-1H-pyrazol-4-yl)pyridin-2-yl)-1′,2′-dihydrospiro[cyclopropane-1,3′-pyrrolo[3,2-c]pyridin]-6′-yl)acetamide trifluoroacetate], the concentration for half-maximal inhibition (IC50) was no less than 1000 nM.

In turn, `CC(=O)Nc1cc2c(cn1)C1(CC1)CN2c1cc(C)cc(-c2cnn(C)c2C(F)F)n1` [Example 262, N-(1′-(6-(5-(difluoromethyl)-1-methyl-1H-pyrazol-4-yl)-4-methylpyridin-2-yl)-1′,2′-dihydrospiro[cyclopropane-1,3′-pyrrolo[3,2-c]pyridin]-6′-yl)acetamide trifluoroacetate] registered an IC50 of 10 to 100 nM.

In turn, `CC(=O)Nc1cc2c(cn1)C1(CC1)CN2c1cc(C)cc(-c2cnn(C3COC3)c2)n1` [Example 265, N-(1′-(4-methyl-6-(1-(oxetan-3-yl)-1H-pyrazol-4-yl)pyridin-2-yl)-1′,2′-dihydrospiro[cyclopropane-1,3′-pyrrolo[3,2-c]pyridin]-6′-yl)acetamide trifluoroacetate] registered an IC50 of 10 to 100 nM.

As to `CC(=O)Nc1cc2c(cn1)C1(CC1)CN2c1cc(C)cc(-c2cnn(CC3CC3)c2)n1` [Example 266, N-(1′-(6-(1-(cyclopropylmethyl)-1H-pyrazol-4-yl)-4-methylpyridin-2-yl)-1′,2′-dihydrospiro[cyclopropane-1,3′-pyrrolo[3,2-c]pyridin]-6′-yl)acetamide trifluoroacetate], the IC50 is 10 to 100 nM.

For the compound `COc1ccc(-c2cc(C)cc(N3CC4(CC4)c4cnc(NC(C)=O)cc43)n2)cn1` [Example 267, N-(1′-(6′-methoxy-4-methyl-[2,3′-bipyridin]-6-yl)-1′,2′-dihydrospiro[cyclopropane-1,3′-pyrrolo[3,2-c]pyridin]-6′-yl)acetamide trifluoroacetate], the IC50 lay within 100 to 1000 nM.

For the compound `CC(=O)Nc1cc2c(cn1)C1(CC1)CN2c1cc(C)cc(-c2cnn(C3CNC3)c2)n1` [Example 268, N-(1′-(6-(1-(azetidin-3-yl)-1H-pyrazol-4-yl)-4-methylpyridin-2-yl)-1′,2′-dihydrospiro[cyclopropane-1,3′-pyrrolo[3,2-c]pyridin]-6′-yl)acetamide trifluoroacetate], the IC50 lay in the range of 100 to 1000 nM.

Take `CC(=O)Nc1cc2c(cn1)C1(CC1)CN2c1cc(C)nc(-c2cnn(C3CNC3)c2)n1` [Example 269, N-(1′-(2-(1-(azetidin-3-yl)-1H-pyrazol-4-yl)-6-methylpyrimidin-4-yl)-1′,2′-dihydrospiro[cyclopropane-1,3′-pyrrolo[3,2-c]pyridin]-6′-yl)acetamide trifluoroacetate]: the IC50 fell in the range of 100 to 1000 nM.

On to `CC(=O)Nc1cc2c(cn1)C1(CCNCC1)CN2c1nccc(C(C)(F)F)n1` [Example 270, N-(1′-(4-(1,1-difluoroethyl)pyrimidin-2-yl)-1′,2′-dihydrospiro[piperidine-4,3′-pyrrolo[3,2-c]pyridin]-6′-yl)acetamide], for which the IC50 was no less than 1000 nM.

With `CC(=O)Nc1cc2c(cn1)C1(CCNCC1)CN2c1ccnc(C(C)(F)F)n1` [Example 271, N-(1′-(2-(1,1-difluoroethyl)pyrimidin-4-yl)-1′,2′-dihydrospiro[piperidine-4,3′-pyrrolo[3,2-c]pyridin]-6′-yl)acetamide], the IC50 is no less than 1000 nM.

With `CC(=O)Nc1cc2c(cn1)C1(CCNCC1)CN2c1cccc(C(C)(F)F)n1` [Example 272, N-(1′-(6-(1,1-difluoroethyl)pyridin-2-yl)-1′,2′-dihydrospiro[piperidine-4,3′-pyrrolo[3,2-c]pyridin]-6′-yl)acetamide], the concentration for half-maximal inhibition (IC50) was no less than 1000 nM.

`CC(=O)Nc1cc2c(cn1)C1(CC1)CN2c1cc(C)nc(OCC(F)(F)F)n1` [Example 361, N-(1′-(6-methyl-2-(2,2,2-trifluoroethoxy)pyrimidin-4-yl)-1′,2′-dihydrospiro[cyclopropane-1,3′-pyrrolo[3,2-c]pyridin]-6′-yl)acetamide trifluoroacetate] returned a half-maximal inhibitory concentration (IC50) of 10 to 100 nM.

The same test, now with this note: TR-FRET probe displacement, JH2 domain of human Tyk2.
For `CC(=O)Nc1cc2c(cn1)C1(CC1)CN2c1cc(C)nc(OCC2CCO2)n1` (stereo not shown) [Example 380, N-(1′-(6-methyl-2-(oxetan-2-ylmethoxy)pyrimidin-4-yl)-1′,2′-dihydrospiro[cyclopropane-1,3′-pyrrolo[3,2-c]pyridin]-6′-yl)acetamide trifluoroacetate], the 50% inhibitory concentration (IC50) was 10 to 100 nM.

In the case of `CC(=O)Nc1cc2c(cn1)C1(CC1)CN2c1cc(-c2cnn(CC#N)c2)nc(C(C)(F)F)n1` [Example 393, N-(1′-(6-(1-(cyanomethyl)-1H-pyrazol-4-yl)-2-(1,1-difluoroethyl)pyrimidin-4-yl)-1′,2′-dihydrospiro[cyclopropane-1,3′-pyrrolo[3,2-c]pyridin]-6′-yl)acetamide], the IC50 was no more than 10 nM.

Another test relates to Tyk2 kinase activity on STAT4. The experiment in a line: pSTAT4 cell assay (MSD, NK92 cells). Format: cell-based. As to conditions: compounds 1 hr, stimulated 15 minutes. How it is done: The inhibitory potency of compounds of the disclosure against the Tyk2 kinase activity on STAT4 was evaluated using an MSD-platform plate-based assay format. NK92 cells natively expressing STAT4 and Tyk2 were serum-starved to reduce background phosphorylation levels, then cells were treated compounds for 1 hr with a 10-point four-fold dilution series starting at 10 μM. Cells were then stimulated with 30 ng/mL IL2 for 15 minutes. Cells were lysed and […] levels were quantitated using an MSD plate-based assay with anti-STAT4 antibodies. The data were normalized and the percent activity versus log concentration of compound were fitted with a 4-parameter logistic model to generate to generate IC50 curves.
Compound `CO[C@H]1C[C@H](Oc2cc(N3CC4(CC4)c4cnc(NC(C)=O)cc43)nc(C(C)(F)F)c2)C1` [Example 92, N-(1′-(6-(1,1-difluoroethyl)-4-((1r,3r)-3-methoxycyclobutoxy)pyridin-2-yl)-1′,2′-dihydrospiro[cyclopropane-1,3′-pyrrolo[3,2-c]pyridin]-6′-yl)acetamide] displayed a half-inhibitory concentration (IC50) of 10 to 100 nM.

As to `COC1(c2cc(C)cc(N3CC4(CC4)c4cnc(NC(C)=O)cc43)n2)CCOC1` (stereo not shown) [Example 96, N-(1′-(6-(3-methoxytetrahydrofuran-3-yl)-4-methylpyridin-2-yl)-1′,2′-dihydrospiro[cyclopropane-1,3′-pyrrolo[3,2-c]pyridin]-6′-yl)acetamide], the half-inhibitory concentration (IC50) is 10 to 100 nM.

As for `CC(=O)Nc1cc2c(cn1)C1(CC1)CN2c1cc(C)nc(-c2ccccc2)n1` [Example 105, N-(1′-(6-methyl-2-phenylpyrimidin-4-yl)-1′,2′-dihydrospiro[cyclopropane-1,3′-pyrrolo[3,2-c]pyridin]-6′-yl)acetamide], the half-inhibitory concentration (IC50) is no less than 1000 nM.

In turn, `CC(=O)Nc1cc2c(cn1)C1(CC1)CN2c1cc(C)nc(-c2cccnc2)n1` [Example 106, N-(1′-(6-methyl-2-(pyridin-3-yl)pyrimidin-4-yl)-1′,2′-dihydrospiro[cyclopropane-1,3′-pyrrolo[3,2-c]pyridin]-6′-yl)acetamide] gave a half-inhibitory concentration (IC50) of no less than 1000 nM.

As to `CC(=O)Nc1cc2c(cn1)C1(CC1)CN2c1cc(C)nc(-c2ccncc2)n1` [Example 107, N-(1′-(6-methyl-2-(pyridin-4-yl)pyrimidin-4-yl)-1′,2′-dihydrospiro[cyclopropane-1,3′-pyrrolo[3,2-c]pyridin]-6′-yl)acetamide], the IC50 was no less than 1000 nM.

Compound `CC(=O)Nc1cc2c(cn1)C1(CC1)CN2c1cc(C)nc(-c2ncccn2)n1` [Example 108, N-(1′-(6-methyl-[2,2′-bipyrimidin]-4-yl)-1′,2′-dihydrospiro[cyclopropane-1,3′-pyrrolo[3,2-c]pyridin]-6′-yl)acetamide] came in with an IC50 of no less than 1000 nM.

For `CC(=O)Nc1cc2c(cn1)C1(CC1)CN2c1cc(C)nc(-c2coc(C)n2)n1` [Example 109, N-(1′-(6-methyl-2-(2-methyloxazol-4-yl)pyrimidin-4-yl)-1′,2′-dihydrospiro[cyclopropane-1,3′-pyrrolo[3,2-c]pyridin]-6′-yl)acetamide], the half-maximal inhibitory concentration (IC50) fell in the range of 100 to 1000 nM.

On to `CC(=O)Nc1cc2c(cn1)C1(CC1)CN2c1cc(C)nc(-n2nc(C)cc2C)n1` [Example 110, N-(1′-(2-(3,5-dimethyl-1H-pyrazol-1-yl)-6-methylpyrimidin-4-yl)-1′,2′-dihydrospiro[cyclopropane-1,3′-pyrrolo[3,2-c]pyridin]-6′-yl)acetamide], for which the half-inhibitory concentration (IC50) was no less than 1000 nM.

Consider `CC(=O)Nc1cc2c(cn1)C1(CC1)CN2c1cc(C)nc(-c2cccc(F)c2)n1` [Example 111, N-(1′-(2-(3-fluorophenyl)-6-methylpyrimidin-4-yl)-1′,2′-dihydrospiro[cyclopropane-1,3′-pyrrolo[3,2-c]pyridin]-6′-yl)acetamide], for which the IC50 was no less than 1000 nM.

Compound `CC(=O)Nc1cc2c(cn1)C1(CC1)CN2c1cc(C)nc(-c2ccccn2)n1` [Example 112, N-(1′-(6-methyl-2-(pyridin-2-yl)pyrimidin-4-yl)-1′,2′-dihydrospiro[cyclopropane-1,3′-pyrrolo[3,2-c]pyridin]-6′-yl)acetamide] registered an IC50 of no less than 1000 nM.

`CC(=O)Nc1cc2c(cn1)C1(CC1)CN2c1cc(C)nc(N(C)C(C)C)n1` [Example 115, N-(1′-(2-(isopropyl(methyl)amino)-6-methylpyrimidin-4-yl)-1′,2′-dihydrospiro[cyclopropane-1,3′-pyrrolo[3,2-c]pyridin]-6′-yl)acetamide] displayed an IC50 of no less than 1000 nM.

Take `CC(=O)Nc1cc2c(cn1)C1(CC1)CN2c1cc(C)nc(C2CC2(C)C)n1` (stereo not shown) [Example 124, N-(1′-(2-(2,2-dimethylcyclopropyl)-6-methylpyrimidin-4-yl)-1′,2′-dihydrospiro[cyclopropane-1,3′-pyrrolo[3,2-c]pyridin]-6′-yl)acetamide]: the IC50 is 10 to 100 nM.
